Test results taken from ChEMBL document CHEMBL2046380, “Synthesis and structure-activity relationship of disubstituted benzamides as a novel class of antimalarial agents” (Bioorg Med Chem Lett, 2012).

How the values were obtained:
Plasmodium falciparum [1] = test: Antimalarial activity against […] incubated for 72 hrs by DNA staining based MARK1 growth inhibition assay; type: functional, organism-based
Plasmodium falciparum [2] = test: Antimalarial activity against chloroquine-sensitive Plasmodium falciparum 3D7 incubated for 72 hrs by DNA staining based MAR3D7 growth inhibition assay; type: functional, organism-based; conditions: 3D7, 72 h
HepG2 = test: Cytotoxicity against human HepG2 cells after 72 hrs by […] CellTiterGlo reagent assay; type: cell-based; conditions: HepG2, 72 h
Raji = test: Cytotoxicity against human Raji cells after 72 hrs by […] CellTiterGlo reagent assay; type: cell-based
BJ = test: Cytotoxicity against human BJ cells after 72 hrs by […] CellTiterGlo reagent assay; type: cell-based
HEK293 = test: Cytotoxicity against human HEK293 cells after 72 hrs by […] CellTiterGlo reagent assay; type: cell-based; conditions: HEK293, 72 h

| SMILES | EC50 (Plasmodium falciparum [1]) [µM] | EC50 (Plasmodium falciparum [2]) [µM] | EC50 (HepG2) [µM] | EC50 (Raji) [µM] | EC50 (BJ) [µM] | EC50 (HEK293) [µM] |
| --- | --- | --- | --- | --- | --- | --- |
| C=CCCC1=NCC(O[Si](C)(C)C(C)(C)C)c2cc(OC)c(OC)cc21 (stereo not drawn) | 3.06 | 2.95 | > 13 | > 13 | > 13 | > 13 |
| CC(=O)Nc1cccc(-c2ccc(C(=O)N(Cc3cccc(OCCCCCC(=O)O)c3)C(C)C)cc2)c1 | > 15 | > 15 | > 26 | > 26 | > 26 | > 26 |
| CCOC(=O)CCCCCOc1cccc(CN(C(=O)c2ccc(-c3cccc(OC(C)C)c3)cc2)C(C)C)c1 | > 15 | > 15 | > 26 | > 26 | > 26 | > 26 |
| CCOC(=O)/C=C1\NCCc2cc3c(cc21)OCO3 | > 7.51 | > 7.51 | > 13 | > 13 | > 13 | > 13 |
| CCOC(=O)CCCCCOc1cccc(CN(C(=O)c2ccc(-c3cccnc3)cc2)C(C)C)c1 | > 15 | > 15 | > 26 | > 26 | > 26 | > 26 |
| CCOC(OCC)C(=O)NCCc1ccc(OC)c(OC)c1 | > 7.51 | > 7.51 | > 13 | > 13 | > 13 | > 13 |
| CCOC(=O)CC(=O)NCCc1ccc(OC)c(OC)c1 | > 7.51 | > 7.51 | > 13 | > 13 | > 13 | > 13 |
| CC(C)N(Cc1cccc(OCCCCCC(=O)O)c1)C(=O)c1ccc(-c2ccc3[nH]ccc3c2)cc1 | > 15 | > 15 | > 26 | > 26 | > 26 | > 26 |
| CC(C)N(Cc1cccc(OCCCCCC(=O)O)c1)C(=O)c1ccc(-c2cccc(C(F)(F)F)c2)cc1 | > 15 | > 15 | > 26 | > 26 | > 26 | > 26 |
| CCOC(=O)CCCCCOc1cccc(CN(C(=O)c2ccc(-c3ccc4cc[nH]c4c3)cc2)C(C)C)c1 | > 15 | > 15 | > 26 | > 26 | > 26 | > 26 |
| CCOC(=O)CCCCCOc1cccc(CN(C(=O)c2ccc(-c3ccsc3)cc2)C(C)C)c1 | > 15 | > 15 | > 26 | > 26 | > 26 | > 26 |
| CCOC(=O)CCCCCOc1cccc(CN(C(=O)c2ccc(-c3ccc4c(c3)OCCO4)cc2)C(C)C)c1 | > 13.5 | > 13.5 | > 24.5 | > 24.5 | > 24.5 | > 24.5 |
| CC(C)N(Cc1cccc(OCCCCCC(=O)O)c1)C(=O)c1ccc(-c2cccc(Br)c2)cc1 | > 15 | > 15 | > 26 | > 26 | > 26 | > 26 |
| CC(C)N(Cc1cccc(OCCCCCC(=O)O)c1)C(=O)c1ccc(-c2cccc(CC#N)c2)cc1 | > 15 | > 15 | > 26 | > 26 | > 26 | > 26 |
| CCOC(=O)CCCCCOc1cccc(CN(C(=O)c2ccc(-c3ccncc3)cc2)C(C)C)c1 | 0.0008 | < 0.0008 | > 26 | > 26 | > 26 | > 26 |
| CC(C)N(Cc1cccc(OCCCCCC(=O)O)c1)C(=O)c1ccc(-c2cccc(OC(F)(F)F)c2)cc1 | > 15 | > 15 | > 26 | > 26 | > 26 | > 26 |
| COc1cc(C)ccc1OCCOc1ccccc1F | > 15 | > 15 | > 26 | > 26 | > 26 | > 26 |
| COC(=O)c1cc(-c2cccs2)nc2ccccc12 | > 15 | > 15 | > 26 | > 26 | > 26 | > 26 |
| COc1ccc(-c2cc(C(=O)O)c3ccccc3n2)cc1OC | > 15 | > 15 | > 26 | > 26 | > 26 | > 26 |
| CC(C)Oc1cccc(-c2ccc(C(=O)N(Cc3cccc(OCCCCCC(=O)O)c3)C(C)C)cc2)c1 | > 15 | > 15 | > 26 | > 26 | > 26 | > 26 |
| CC(C)N(Cc1cccc(OCCCCCC(=O)O)c1)C(=O)c1ccccc1 | 0.0074 | > 15 | > 26 | > 26 | > 26 | > 26 |
| CC(C)N(Cc1cccc(OCCCCCC(=O)O)c1)C(=O)c1ccc(-c2ccc3cc[nH]c3c2)cc1 | > 1.5 | > 15 | > 26 | > 26 | > 26 | > 26 |

| SMILES | EC50 (Plasmodium falciparum [1]) [µM] | EC50 (Plasmodium falciparum [2]) [µM] | EC50 (HepG2) [µM] | EC50 (Raji) [µM] | EC50 (BJ) [µM] | EC50 (HEK293) [µM] |
| --- | --- | --- | --- | --- | --- | --- |
| C=CCCC1=NCC(OC(C)=O)c2cc(OC)c(OC)cc21 (stereo not drawn) | > 7.51 | > 7.51 | > 13 | > 13 | > 13 | > 13 |
| CC(C)N(Cc1cccc(OCCCCCC(=O)O)c1)C(=O)c1ccc(-c2cccc(S(C)(=O)=O)c2)cc1 | > 15 | > 15 | > 26 | > 26 | > 26 | > 26 |
| CCOC(=O)CCCCCOc1cccc(CN(C(=O)c2ccc(-c3cccc(-c4ccccc4)c3)cc2)C(C)C)c1 | > 15 | > 15 | > 26 | > 26 | > 26 | > 26 |
| CC(C)N(Cc1cccc(OCCCCCC(=O)O)c1)C(=O)c1ccc(-c2cccc(O)c2)cc1 | > 15 | > 15 | > 26 | > 26 | > 26 | > 26 |
| CCOC(=O)CCCCCOc1cccc(CN(C(=O)c2ccc(-c3cccc(OCc4ccccc4)c3)cc2)C(C)C)c1 | > 15 | > 15 | > 26 | > 26 | > 26 | > 26 |
| CC(C)N(Cc1cccc(OCCCCCC(=O)O)c1)C(=O)c1ccc(-c2ccco2)cc1 | > 15 | > 15 | > 26 | > 26 | > 26 | > 26 |
| CC(C)N(Cc1cccc(OCCCCCC(=O)O)c1)C(=O)c1ccc(-c2cccc(-c3ccccc3)c2)cc1 | > 15 | > 15 | > 26 | > 26 | > 26 | > 26 |
| CCOC(=O)CCCCCOc1cccc(CN(C(=O)c2ccc(-c3cccc(OCC(C)C)c3)cc2)C(C)C)c1 | > 15 | > 15 | > 26 | > 26 | > 26 | > 26 |
| CCOC(=O)CCCCCOc1cccc(CN(C(=O)c2ccc(-c3cccc(Br)c3)cc2)C(C)C)c1 | > 15 | > 15 | > 26 | > 26 | > 26 | > 26 |
| CCCNCc1ccc(OCCCCCC(=O)OCC)cc1 | > 15 | > 15 | > 26 | > 26 | > 26 | > 26 |
| COc1ccc(CCNC(=O)CCO[Si](C)(C)C(C)(C)C)cc1OC | > 7.51 | > 2.58 | 4.89 | 6.9 | > 13 | > 13 |
| CC(C)N(C(=O)c1ccc(-c2ccc3c(c2)OCO3)cc1)[C@H](C)c1ccccc1 | > 15 | > 15 | > 26 | > 26 | > 26 | > 26 |
| CCOC(=O)CCCCCOc1cccc(CN(C(=O)c2ccc(-c3cccc(S(C)(=O)=O)c3)cc2)C(C)C)c1 | > 15 | > 15 | > 26 | > 26 | > 26 | > 26 |
| CC(C)N(Cc1ccc(OCCCCCC(=O)O)cc1)C(=O)c1ccc(-c2ccc3c(c2)OCO3)cc1 | 1.82 | > 15 | > 26 | > 26 | > 26 | > 26 |
| CCOC(=O)CCCCCOc1ccccc1CNC(C)C | > 15 | > 15 | > 26 | > 26 | > 26 | > 26 |
| CCOC(=O)CCCCCOc1cccc(CN(C(=O)c2ccc(-c3ccoc3)cc2)C(C)C)c1 | > 15 | > 15 | > 26 | > 26 | > 26 | > 26 |
| CCCN(Cc1cccc(OCCCCCC(=O)O)c1)C(=O)c1ccc(-c2ccc3c(c2)OCO3)cc1 | 0.995 | 0.174 | > 26 | > 26 | > 26 | > 26 |
| C=CCCC(=O)NCC1(c2ccc3c(c2)OCO3)OCCO1 | > 7.51 | > 7.51 | > 13 | > 13 | > 13 | > 13 |
| COc1ccc(CCNC(=O)CCCCC(C)=O)cc1OC | > 7.51 | > 7.51 | > 13 | > 13 | > 13 | > 13 |
| CC(C)COc1cccc(-c2ccc(C(=O)N(Cc3cccc(OCCCCCC(=O)O)c3)C(C)C)cc2)c1 | > 15 | > 15 | > 26 | > 26 | > 26 | > 26 |
| CC(C)N(Cc1cccc(OCCCCCC(=O)O)c1)C(=O)c1ccc(-c2ccncc2)cc1 | 0.52 | 0.567 | > 26 | > 26 | > 26 | > 26 |
